Results on 39 compounds are retold here after ChEMBL document CHEMBL5729557, “5-membered heteroaryl carboxamide compounds for treatment of HBV” (2023).

The test in a line: Assay Measuring Activity of Test Compounds on Viral Production from HepAD38 Cells: HepAD38 cells grown in a T-150 flask (Corning, cat #: 430825) with Growth Medium (DMEM/F12 (1:1) (Hyclone, cat #: SH30023.02), 1× Pen/Strep (Invitrogen, cat #: 15140-122), 10% FBS (Tissue Culture Biologics, cat #: 101), 250 μg/mL G418 (Alfa Aesar, cat #: J62671), 1 μg/mL Tetracycline (Teknova, cat #: T3320)) were detached with 0.25% trypsin-EDTA to (Invitrogen, cat #: 25200-056). Tetracycline-free treatment medium (15 mL DMEM/F12 (1:1) 1× Pen/step, with 2% FBS, Tet-system approved (Clontech, cat #: 631106) were then added to mix, transferred into a 50 ml conical tube (Falcon, cat #: 21008-918,) and spun at 1300 rpm for 5 min. Pelleted cells were then re-suspended/washed with 50 mL of 1×DPBS (Invitrogen, cat #: 14190-136) 2 times and 50 mL treatment medium twice. HepAD38 cells were then re-suspended with 10 mL of treatment medium, syringed and counted. Wells of 96-well clear bottom TC plate (Corning, cat #: 3904,) were seeded at 50,000 cells/well in 180 μL of treatment medium, and 20 μL of either 10% DMSO (Sigma, cat #: D4540) as controls or a 10× solution of test compounds in 10% DMSO in treatment media was added for a final compound concentration starting at 10 μM, and plates were incubated in 5% CO2 incubator at 37° C. for 5 days.Subsequently viral load production was assayed by quantitative PCR (qPCR) of the HBV core sequence. PCR reaction mixture containing forward primers HBV-f 5′-CTGTGCCTTGGGTGGCTTT-3′ (IDT DNA), Reverse primers HBV-r 5′-[…]-3′ (IDT DNA), Fluorescent TaqMan™ Probes HBV-probe 5′-FAM/AGCTCCAAA/ZEN/[…]/3IABkFQ-3′ (IDT DNA), 10 μL/well of PerfeCTa® qPCR ToughMix® (Quanta Biosciences, Cat #: 95114-05K), and 6 μL/well of DEPC water (Alfa Aesar, cat #: J62087) was prepared. […] of supernatant was added to 16 μL of the reaction mixture in a qPCR plate (Applied Biosytems, Cat #: 4309849), sealed with a film (Applied Biosystems, Cat #: 4311971), centrifuged for a few seconds, and subsequently run on an Applied Biosystems VIIA7. The PCR mixture was incubated at 45° C. for 5 min, then 95° C. for 10 min, followed by 40 cycles of 10 seconds at 95° C. and 20 seconds at 60° C. Viral load was quantified against known HBV DNA standards by using ViiA™ 7 Software. Viral load in the supernatant from wells with treated cells were compared against viral load in supernatant from DMSO control wells (>3 per plate). Cell viability assay was performed with CellTiter-Glo Luminescent Cell Viability Assay (Promega, cat #: G7573) with modification. Mixed appropriate amount of CellTiter-Glo (CTG) 1×DPBS in a 1:1 ratio, added 100 uL of the mixture to each well followed completely removal of all supernatant in each well without touching cell surface. Incubated the plate at room temperature for 10 min on an orbital shaker, and then read the plate with a plate reader (TECAN M1000 or Envision). The settings on record: HePAD38.
For orientation: EC50 means the concentration at which the effect is half-maximal. With `COc1cc(-c2cn(C)cn2)ccc1[C@H]1CC[C@@H](c2nn(C)c(N)c2C(=O)Nc2ccc(F)c(Cl)c2)C1`, the EC50 result was “in the range around 300 nM”.

In the case of `Cn1nc([C@@H]2CC3CC(O)(CSCC(F)(F)F)C[C@@H]3C2)c(C(=O)Nc2ccc(F)c(Cl)c2)c1N` (some centres undefined), the half-maximal effective concentration (EC50) is less than 100 nM.

Take `CN(C)C(=O)CC1CC2CC(c3nn(C)c(N)c3C(=O)Nc3ccc(F)c(Cl)c3)CC2C1` (centres undefined): the EC50 is less than 100 nM.

In the case of `Cn1nc([C@@H]2CC3CC(O)(CSCCO)C[C@H]3C2)c(C(=O)Nc2ccc(F)c(Cl)c2)c1N` (some centres undefined), the concentration giving a half-maximal response (EC50) is less than 100 nM.

In the case of `Cn1nc(C2CC3CC(N4CCCS4(=O)=O)CC3C2)c(C(=O)Nc2ccc(F)c(Cl)c2)c1N` (centres undefined), the EC50 is less than 100 nM.

With `COc1cccc([C@H]2CC[C@H](c3nn(C)c(N)c3C(=O)Nc3ccc(F)c(Cl)c3)C2)c1`, the EC50 was less than 100 nM.

As for `Cn1nc([C@@H]2CC[C@@H](c3ccccc3)C2)c(C(=O)Nc2ccc(F)c(Cl)c2)c1N`, the EC50 was less than 100 nM.

`Cn1nc(C2CC3CC(O)(COCC(F)(F)F)CC3C2)c(C(=O)Nc2ccc(F)c(Cl)c2)c1N` (centres undefined): the EC50 is less than 100 nM.

With `Cn1nc([C@@H]2CC3CC(O)(CC(=O)O)C[C@@H]3C2)c(C(=O)Nc2ccc(F)c(Cl)c2)c1N` (some centres undefined), the EC50 is less than 100 nM.

As for `CNC(=O)N1CC2CC(c3nn(C)c(N)c3C(=O)Nc3ccc(F)c(Cl)c3)CC2C1` (centres undefined), the EC50 was less than 100 nM.

As for `CCSC1CC2CC(c3nn(C)c(N)c3C(=O)Nc3ccc(F)c(Cl)c3)CC2C1` (centres undefined), the EC50 is less than 100 nM.

Turning to `Cn1nc([C@@H]2CC3COC(=O)C[C@H]3C2)c(C(=O)Nc2ccc(F)c(Cl)c2)c1N` (some centres undefined), the EC50 entry is “in the range around 300 nM”.

Consider `Cn1cc(-c2ccc([C@H]3CC[C@H](c4nn(C)c(N)c4C(=O)Nc4ccc(F)c(Cl)c4)C3)cc2)cn1`, for which the EC50 was less than 100 nM.

Regarding `Cn1nc([C@H]2C[C@H](c3ccccc3)C2)c(C(=O)Nc2ccc(F)c(Cl)c2)c1N`, the half-maximal effective concentration (EC50) entry was “in the range around 300 nM”.

Take `Cn1cc([C@@H]2CC[C@@H](c3nn(C)c(N)c3C(=O)Nc3ccc(F)c(Cl)c3)C2)cn1`: the EC50 entry is “in the range around 300 nM”.

`Cn1nc(C2CC3CC(O)(CSCCN4CCOCC4)CC3C2)c(C(=O)Nc2ccc(F)c(Cl)c2)c1N` (centres undefined): the EC50 was less than 100 nM.

Take `COC1CC2CC(c3nn(C)c(N)c3C(=O)Nc3ccc(F)c(Cl)c3)CC2C1` (centres undefined): the EC50 was less than 100 nM.

As for `CC(N1CC2CC(c3nn(C)c(N)c3C(=O)Nc3ccc(F)c(Cl)c3)CC2C1)C(F)(F)F` (centres undefined), the EC50 is less than 100 nM.

Consider `Cn1nc(C2CC3CC(C(N)=O)CC3C2)c(C(=O)Nc2ccc(F)c(Cl)c2)c1N` (centres undefined), for which the EC50 is less than 100 nM.

As for `Cn1nc([C@@H]2CC3CC(O)(C[S+]([O-])CC(F)(F)F)C[C@H]3C2)c(C(=O)Nc2ccc(F)c(Cl)c2)c1N` (some centres undefined), the EC50 was less than 100 nM.

For `Cn1nc(C2CC3CC(N4CCC4)CC3C2)c(C(=O)Nc2ccc(F)c(Cl)c2)c1N` (centres undefined), the EC50 entry is “in the range around 300 nM”.

`Cn1nc(C2CC3CC(N)CC3C2)c(C(=O)Nc2ccc(F)c(Cl)c2)c1N` (centres undefined): the EC50 entry is “in the range around 300 nM”.

In the case of `Cn1nc([C@@H]2CC3CC(O)(CSCC(F)(F)F)C[C@H]3C2)c(C(=O)Nc2ccc(F)c(Cl)c2)c1N` (some centres undefined), the EC50 is less than 100 nM.

`Cn1nc([C@H]2CC3COC(=O)C[C@H]3C2)c(C(=O)Nc2ccc(F)c(Cl)c2)c1N` (some centres undefined): the EC50 was less than 100 nM.

Turning to `COc1cc(-c2cn(C)cn2)ccc1[C@@H]1CC[C@@H](c2nn(C)c(N)c2C(=O)Nc2ccc(F)c(Cl)c2)C1`, the EC50 was less than 100 nM.

As for `Cn1nc([C@@H]2CC3CC(O)(CSCCN4CCOCC4)C[C@@H]3C2)c(C(=O)Nc2ccc(F)c(Cl)c2)c1N` (some centres undefined), the EC50 is less than 100 nM.

Consider `Cn1nc(C2CC3CC(n4cccn4)CC3C2)c(C(=O)Nc2ccc(F)c(Cl)c2)c1N` (centres undefined), for which the EC50 is less than 100 nM.

Consider `Cn1nc(C2CCC(c3cnc(C(F)(F)F)s3)C2)c(C(=O)Nc2ccc(F)c(Cl)c2)c1N` (centres undefined), for which the EC50 entry is “in the range around 5250 nM”.

Consider `Cn1nc(C2CC3CC(O)(C(C)(C)O)CC3C2)c(C(=O)Nc2ccc(F)c(Cl)c2)c1N` (centres undefined), for which the EC50 is less than 100 nM.

Turning to `Cn1nc([C@@H]2CC3CC(O)(CSCCO)C[C@@H]3C2)c(C(=O)Nc2ccc(F)c(Cl)c2)c1N` (some centres undefined), the EC50 is less than 100 nM.

Turning to `Cn1nc([C@@H]2CC3CC(O)(CN4CCOCC4)C[C@@H]3C2)c(C(=O)Nc2ccc(F)c(Cl)c2)c1N` (some centres undefined), the EC50 result is “in the range around 5250 nM”.

As for `Cn1nc(C2CC3CN(C(=O)N4CCCC4)CC3C2)c(C(=O)Nc2ccc(F)c(Cl)c2)c1N` (centres undefined), the EC50 is less than 100 nM.

Turning to `COCCOc1ccc(C2CCC(c3nn(C)c(N)c3C(=O)Nc3ccc(F)c(Cl)c3)C2)cc1` (centres undefined), the EC50 is less than 100 nM.

In the case of `CC(C)N1CC2CC(c3nn(C)c(N)c3C(=O)Nc3ccc(F)c(Cl)c3)CC2C1` (centres undefined), the EC50 result is “in the range around 5250 nM”.

As for `COc1cc(-c2ncc[nH]2)ccc1[C@@H]1CC[C@@H](c2nn(C)c(N)c2C(=O)Nc2ccc(F)c(Cl)c2)C1`, the EC50 is less than 100 nM.

Regarding `Cn1nc([C@@H]2CC3COC(=O)C[C@@H]3C2)c(C(=O)Nc2ccc(F)c(Cl)c2)c1N` (some centres undefined), the EC50 entry was “in the range around 300 nM”.

With `Cn1nc([C@H]2CC[C@H](c3ccccc3)C2)c(C(=O)Nc2ccc(F)c(Cl)c2)c1N`, the EC50 result was “in the range around 5250 nM”.

Consider `CC(C)OCC1(O)CC2C[C@@H](c3nn(C)c(N)c3C(=O)Nc3ccc(F)c(Cl)c3)C[C@@H]2C1` (some centres undefined), for which the EC50 result is “in the range around 300 nM”.

For the compound `Cn1nc([C@@H]2CC3CC(O)(CS(C)(=O)=O)C[C@H]3C2)c(C(=O)Nc2ccc(F)c(Cl)c2)c1N` (some centres undefined), the EC50 was less than 100 nM.
